Here are results for 6 compounds from patent US20240109855A1, “ANTI-QUORUM SENSING, ANTI-BIOFILM, AND INFLAMMATION ATTENUATING COMPOUNDS, COMPOSITIONS, AND METHODS OF USING SAME” (priority 2021, published 2024).

The subject of series [1] is Chromobacterium violaceum (CV026). Put plainly: Quorum sensing inhibition test with bio-reporter CV026 (TLC overlay). As to Degree of QSI of CV026: key: −: no inhibition; +: low inhibition; ++: medium inhibition; +++: strong inhibition. As to Degree of quorum sensing inhibition (QSI), CV026: key: −: no inhibition; +: low inhibition; ++: medium inhibition; +++: strong inhibition. The format is cell-based. The following applies: for Degree of QSI of CV026: Table 1, coumaperine derivatives, 40 mM in ~20 μL acetonitrile dried on TLC plate, overnight, color intensity; for QSI activity against CV026, in words: running text. The method, then: (§1) TLC preparation: all derivatives were dissolved in 100% acetonitrile to a concentration of 40 mM. Then placed 20 μlon the same spot on the TLC and let the solvent evaporate before use. CV026: few colonies were transferred to liquid LB (Lenox) for overnight incubation at 30° C. in a 45 degree in orbital shaker. At the O.D. 0.8 3 ml of the starter was added to preheated soft LB agar containing 500 nM of 3-oxo-C6 (Sigma-Aldrich). The mixture was then loaded on the TLC in a glass plate for O.N. incubation in 30° C. The next day inhibition zone was measured, while QS is taking place bacteria produce purple pigment, and when QS is inhibited no pigment is produced. KYC55 (pJZ372) (pJZ384) (pJZ410): 20 μl from the frozen stock into 25 ml AT media (AT buffer×20: 1.57 M KH2PO4 pH=7.3. AT salts mix×20: 300 mM (NH4)2SO4, 13 mM MgSO4, 1.4 mM CaCl2, 0.4 mM FeSO4·7H2O, 0.26 mM MnSO4·H2O. AT media: 50 ml×20 AT-buffer, 50 ml×20 AT-salts, 10 ml 50% (w/v) glucose, add 890 ml to final volume of 1 liter.) For O.N. at 30° C. in an orbital shaker. Into preheated water agar with 25 ml AT-buffer, and 60 μg/ml X-gal and 5 nM 3-oxo-c8 (both from Sigma-Aldrich) 25 ml of the starter was added. Then, that mixture was loaded on the TLC in glass plate for O.N. incubation in 30° C. The next day the inhibition zone was measured. The bacteria produce blue pigment during QS and when QS is inhibited no pigment is produced. KYC55 (pJZ372) (pJZ384) (pJZ410) preservation in tetracycline (1 μg/ml), spectinomycin (100 μg/ml), gentamicin (100 μg/ml) (all antibiotics from Sigma Aldrich) in AT media O.N. then centrifuged and suspend in 15% glycerol frozen and maintained at −80° C.

Series [2] relates to Agrobacterium tumefaciens (KYC55). Nature of the series: Quorum sensing inhibition test with bio-reporter KYC55 (TLC overlay). As to Degree of QSI of KYC55: key: −: no inhibition; +: low inhibition; ++: medium inhibition; +++: strong inhibition. As to Degree of quorum sensing inhibition (QSI), KYC55: key: −: no inhibition; +: low inhibition; ++: medium inhibition; +++: strong inhibition. It counts as cell-based. The following applies: for Degree of QSI of KYC55: Table 1, coumaperine derivatives, 40 mM in ~20 μL acetonitrile dried on TLC plate, overnight, color intensity; for QSI activity against KYC55, in words: running text. The method, then: as §1

The nature of another series: in vitro. As for the experimental part: (§2) The human Hodgkin's Lymphoma derived L428 cell line was used as a model. The cells were grown in RPMI Medium 1640 with 10% FBS, 1% Glutamine and pen-strep (all from Biological Industries, Israel). […] Thirty thousand (30,000) cells/well were placed in 96-well plates with the coumaperine derivatives at different concentrations or with vehicle (DMSO) at a final volume of 200 μl. The plates were incubated for 48 hrs. at 37° C. and 5% CO2 followed by the addition of 50 μl of the XTT reagent tetrazolium-formazan, (Biological Industries, Israel) was added for 2 hrs. at 37° C., 5% CO2. In living cells, mitochondria […] the tetrazolium-formazan salt, thereby generating a color absorbing product at 450 nm. Absorbance was measured at 450 nm and 650 nm in an enzyme-linked immunosorbent assay (ELISA) plate reader (Multiskan Spectrum, Version 1.2), and recorded. Absorption values at 650 nm were subtracted from the blank and the 450 nm values. The results were normalized to the control (treated with DMSO).
(§3) Viability was determined in triplicate in two independent tests. The results were normalized to vehicle (DMSO) treated cells, (100% viability). Mean+SD.

Series [3] relates to quorum sensing (CV026 and KYC55). Nature of the series: Quorum sensing inhibition, overall statement over the bio-reporter bacteria. The note with it: for QSI: Table 6 summary; for QSI activity overall, in words: running text. The format is cell-based. The method, then:
as §1
All the synthesized compounds were evaluated for quorum sensing inhibition against two bioreporter bacteria strains, Chromobacterium violaceum (CV026) and Agrobacterium tumefaciens (KYC55) and the results are summarized in Table 1.

The test system of series [4] is gram-positive and gram-negative bacteria. Put plainly: Antibacterial activity, overall statement (diffusion discs test). It counts as cell-based. The note with it: for Antibacterial: Table 6 summary; for Antibacterial activity, in words: running text. As for the experimental part:
All derivatives were dissolved in acetonitrile to a final concentration of 40 mM. Twenty (20) μl were loaded onto Whatman filter paper discs and dried. Bacillus subtilis, Staphylococcus aureus, and Acinetobacter baumannii were grown in LB (Lenox) O.N. One hundred (100) μl from the starter culture was plated on LB agar (Miller) dishes. Streptococcus sobrinus, and Streptococcus mutans grown in Brain Heary Infusion (BHI, Himedia) O.N. were similarly plated on BHI agar dishes. Discs were laid and incubated O.N. in 37° C. and the diameter of inhibition of bacterial growth was measured.
The antibacterial activities of derivatives showing QSI are outlined in Table 4. […] Similar to that idea, synthetic derivatives of furanon (product of marine algae) shown in-vivo QSI activity without antibacterial activity followed by immune response of the infected animal. Phenolic compounds decrease QS and virulence in PA01 and Chromobacterium violaceum. There is increasing number of studies, searching for compounds that targeting non-vital processes to combat bacteria.

The subject of the next series is NF-kB. Nature of the series: NF-kB-luciferase reporter gene assay in L428 cells. Also: key: +: active; −: inactive. The following applies: Table 6 summary. The format is cell-based, human. As for the experimental part:
FIG. 7 includes a vertical bar graph showing a dose response of NF-kB activation according to an NF-kB reporter gene luciferase assay. L428 cells were stably transfected with the NF-kB luciferase reporter gene. The cells were incubated with the compounds at different concentrations for 2 hours. […] The results represent the percentage of NF-kB activation as compared to vehicle (DMSO) treated cells. All samples were normalized to protein concentration. Mean+SD, Two-way ANOVA and Tukey's multiple comparison test. 95% confidence interval (p-values *≤0.0332, **≤0.0021, ***≤0.0002).
L428 cells stable transfectants with the luciferase NF-kB-Luc reporter gene were generated previously described (Ozer et al., 2009), and were maintained in 500 μg/ml of G418 (G418 disulfate salt, Sigma-Aldrich). The cells (5×10^5 /well in triplicate) were incubated for 2 hrs. in 1 ml of medium containing the solvent (DMSO) or different concentrations of the molecules tested. Cells were then harvested, lysed, and monitored by a luciferase reporter assay kit (Promega) according to the manufacturer's instructions. Measurements were carried out using a luminometer (Promega, GLOMAX™ 20/20 Luminometer). Data were normalized to the protein concentration in each lysate as measured by the Bradford method (BioRad) and normalized to the control. Experiments were repeated at least three times.
For orientation: Reporter assays use an easily measured gene product as a stand-in for the process of interest.

A further series deals with L428 cells. Put plainly: in vitro. As for the experimental part: as §2, §3

Entries after “also recorded” stand apart in the source; their conditions may differ. Like-named read-outs stand apart in the source and are kept apart here.

Regarding `COc1ccc(/C=C/C=C/C(=O)N2CCCCC2)cc1` [CP-38, (2E,4E)-5-(4-methoxyphenyl)-1-(piperidin-1-yl)penta-2,4-dien-1-one], in series [1], the “Degree of QSI of CV026” value is reported as “++” and the “QSI activity against CV026, in words” value is reported as “moderate”. For the same compound, in series [2], the “Degree of QSI of KYC55” value is “+” and the “QSI activity against KYC55, in words” value is given as “low”. For the same compound, the CC50 at 48 h in “in vitro” (human, LC50) is 47.4 µM.
Regarding `CC(=O)Oc1ccc(/C=C/C=C/C(=O)N2CCCCC2)cc1` [CP-158, 4-((1E,3E)-5-oxo-5-(piperidin-1-yl)penta-1,3-dienyl)phenyl acetate], in series [1], the “Degree of QSI of CV026” value is “+++” and the “QSI activity against CV026, in words” value was “more effective against CV026 than KYC55”. The “Degree of QSI of KYC55” value in series [2] was “++”. Besides, in series [3], the QSI entry is listed as “+” and the “QSI activity overall, in words” value is given as “anti QS activity”. Also, in series [4], the Antibacterial result is “−” and the “Antibacterial activity, in words” value is “did not show antibiotic activity”. The Anti-inflammatory result in the series with NF-kB was “+”. Further, the CC50 at 48 h in “in vitro” (human, LC50) was 285 µM. For the same compound, in the series on L428 cells, the Cytotoxic entry is “+” and the “Cytotoxic activity, in words” value is on record as “not cytotoxic”.
With `COc1cc(/C=C/C=C/C(=O)N2CCCCC2)ccc1O` [CP-205], in series [1], the “Degree of QSI of CV026” value is given as “++” and the “QSI activity against CV026, in words” value is recorded as “moderate activity; also recorded: moderately active”. Further, in series [2], the “Degree of QSI of KYC55” value was “++” and the “QSI activity against KYC55, in words” value is “moderate activity; also recorded: moderately active”. The QSI result in series [3] was “+”. For the same compound, in series [4], the Antibacterial entry was “−”. Moreover, in the series with NF-kB, the Anti-inflammatory entry is recorded as “+”. In the series with L428 cells, the Cytotoxic entry is recorded as “−”; the “Cytotoxic activity, in words” value was “no cytotoxic activity”; the LC50 entry was “Non-toxic”.
On to `O=C(/C=C/c1ccc2c(c1)OCO2)N1CCCCC1` [CP-215, (E)-3-(benzo[d][1,3]dioxol-5-yl)-1-(piperidin-1-yl)prop-2-en-1-one], for which the “QSI activity against CV026, in words” value in series [1] is given as “highly active”. Further, the “QSI activity against KYC55, in words” value in series [2] is recorded as “highly active”. Also, in series [3], the QSI entry is given as “+” and the “QSI activity overall, in words” value was “active; also recorded: strong”. For the same compound, the “QSI activity overall, in words” value in series [3] (listed as CP215) is listed as “anti QS activity”. In series [4], the Antibacterial result is on record as “−” and the “Antibacterial activity, in words” value was “did not show antibiotic activity”. Moreover, the Anti-inflammatory entry with NF-kB is given as “+”. For the same compound, in the series on L428 cells, the Cytotoxic result is on record as “−” and the LC50 entry is on record as “Non-toxic”.
Take `O=C(/C=C/c1ccc([N+](=O)[O-])cc1)N1CCCCC1` [CP-286]: in series [1], the “Degree of QSI of CV026” value is “+” and the “QSI activity against CV026, in words” value is recorded as “low”. Also, in series [2], the “Degree of QSI of KYC55” value is listed as “++” and the “QSI activity against KYC55, in words” value is reported as “moderate”. In addition, in series [3], the QSI entry is “+” and the “QSI activity overall, in words” value is recorded as “anti QS activity”. Moreover, in series [4], the Antibacterial result is reported as “−” and the “Antibacterial activity, in words” value is given as “did not show antibiotic activity”. Moreover, the Anti-inflammatory entry in the series on NF-kB is “+”. Besides, in the series with L428 cells, the Cytotoxic entry was “−” and the LC50 entry is reported as “Non-toxic”.
As to `COc1cc(CCC(=O)CC(=O)CCc2ccc(O)c(OC)c2)ccc1O` [HCU, Tetrahydrocurcumin], the “Degree of quorum sensing inhibition (QSI), CV026” value in series [1] (Table 3, curcumin derivatives) is “+”. Besides, the “Degree of quorum sensing inhibition (QSI), KYC55” value in series [2] (Table 3, curcumin derivatives) is “+++”. Moreover, the QSI entry in series [3] is on record as “+”. Besides, the Antibacterial entry in series [4] is listed as “−”. The Anti-inflammatory result in the series with NF-kB is “+”. In “in vitro”, this compound returned a CC50 at 48 h of 102 µM. The “Cytotoxic activity, in words” value with L428 cells (L428 cells) was “cytotoxic”. Besides, in the series with L428 cells (Table 6 summary), the Cytotoxic entry was “+”.
